From PubChem BioAssay (NCI)
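Here, GI50 denotes the concentration required for 50% inhibition of growth. TGI: concentration producing complete growth inhibition.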

Columns and labels:
Assay in all cases: growth of human tumour cells (NCI), 384-well format
786-0 renal = system: 786-0 renal
A498 renal = system: A498 renal
A549 NSCLC = system: A549 NSCLC
ACHN renal = system: ACHN renal
BT-549 breast = system: BT-549 breast
CAKI-1 renal = system: CAKI-1 renal
CCRF-CEM leukemia = system: CCRF-CEM leukemia
COLO 205 colon = system: COLO 205 colon
DU-145 prostate = system: DU-145 prostate
EKVX NSCLC = system: EKVX NSCLC
HCC-2998 colon = system: HCC-2998 colon
HCT-116 colon = system: HCT-116 colon
HCT-15 colon = system: HCT-15 colon
HL-60(TB) leukemia = system: HL-60(TB) leukemia
HOP-62 NSCLC = system: HOP-62 NSCLC
HOP-92 NSCLC = system: HOP-92 NSCLC
HS 578T breast = system: HS 578T breast
HT29 colon = system: HT29 colon
IGROV1 ovarian = system: IGROV1 ovarian
K-562 leukemia = system: K-562 leukemia
KM12 colon = system: KM12 colon
LOX IMVI melanoma = system: LOX IMVI melanoma
M14 melanoma = system: M14 melanoma
MALME-3M melanoma = system: MALME-3M melanoma
MDA-MB-231 breast = system: MDA-MB-231 breast
MDA-MB-435 melanoma = system: MDA-MB-435 melanoma
MDA-MB-468 breast = system: MDA-MB-468 breast
MOLT-4 leukemia = system: MOLT-4 leukemia
NCI-H226 lung = system: NCI-H226 lung
NCI-H23 lung = system: NCI-H23 lung
NCI-H322M lung = system: NCI-H322M lung
NCI-H460 NSCLC = system: NCI-H460 NSCLC
NCI-H522 lung = system: NCI-H522 lung
NCI/ADR-RES ovarian = system: NCI/ADR-RES ovarian
OVCAR-3 ovarian = system: OVCAR-3 ovarian
OVCAR-4 ovarian = system: OVCAR-4 ovarian
OVCAR-5 ovarian = system: OVCAR-5 ovarian
OVCAR-8 ovarian = system: OVCAR-8 ovarian
PC-3 prostate = system: PC-3 prostate
RPMI-8226 leukemia = system: RPMI-8226 leukemia
RXF 393 renal = system: RXF 393 renal
SF-268 CNS = system: SF-268 CNS
SF-295 CNS = system: SF-295 CNS
SF-539 CNS = system: SF-539 CNS
SK-MEL-2 melanoma = system: SK-MEL-2 melanoma
SK-MEL-28 melanoma = system: SK-MEL-28 melanoma
SK-MEL-5 melanoma = system: SK-MEL-5 melanoma
SK-OV-3 ovarian = system: SK-OV-3 ovarian
SN12C renal = system: SN12C renal
SNB-19 CNS = system: SNB-19 CNS
SNB-75 CNS = system: SNB-75 CNS
SR leukemia = system: SR leukemia
SW-620 colon = system: SW-620 colon
T-47D breast = system: T-47D breast
TK-10 renal = system: TK-10 renal
U251 glioblastoma = system: U251 glioblastoma
UACC-257 melanoma = system: UACC-257 melanoma
UACC-62 melanoma = system: UACC-62 melanoma
UO-31 renal = system: UO-31 renal

Structure (SMILES): COc1cc2c(c(OC)n1)[C@]1(O)[C@H](O)[C@H](CN(C)C)[C@@H](c3ccccc3)[C@]1(c1ccc(C#N)cc1)O2
- GI50 ([…]-0 renal): 18.6 nM
- TGI (786-0 renal): 77.6 nM
- GI50 (A498 renal): < 10 nM
- TGI (A498 renal): 266 nM
- GI50 (A549 NSCLC): 12 nM
- TGI (A549 NSCLC): 16000 nM
- GI50 (ACHN renal): 10.2 nM
- TGI (ACHN renal): 48.3 nM
- GI50 (BT-549 breast): 23.7 nM
- TGI (BT-549 breast): 95.7 nM
- GI50 (CAKI-1 renal): < 10 nM
- TGI (CAKI-1 renal): 41 nM
- GI50 (CCRF-CEM leukemia): < 10 nM
- TGI (CCRF-CEM leukemia): 17.8 nM
- GI50 (COLO 205 colon): < 10 nM
- TGI (COLO 205 colon): 120 nM
- GI50 (DU-145 prostate): < 10 nM
- TGI (DU-145 prostate): 48 nM
- GI50 (EKVX NSCLC): < 10 nM
- TGI (EKVX NSCLC): 46.3 nM
- GI50 (HCC-2998 colon): < 10 nM
- TGI (HCC-2998 colon): 28.5 nM
- GI50 (HCT-116 colon): < 10 nM
- TGI (HCT-116 colon): 26 nM
- GI50 (HCT-15 colon): 13.1 nM
- TGI (HCT-15 colon): 99.3 nM
- GI50 (HL-60(TB) leukemia): < 10 nM
- TGI (HL-60(TB) leukemia): < 10 nM
- GI50 (HOP-62 NSCLC): < 10 nM
- TGI (HOP-62 NSCLC): 48.3 nM
- GI50 (HOP-92 NSCLC): 19.5 nM
- TGI (HOP-92 NSCLC): 78.7 nM
- GI50 (HS 578T breast): < 10 nM
- TGI (HS 578T breast): 40.6 nM
- GI50 (HT29 colon): 22.2 nM
- TGI (HT29 colon): 15600 nM
- GI50 (IGROV1 ovarian): < 10 nM
- TGI (IGROV1 ovarian): 13900 nM
- GI50 (K-562 leukemia): < 10 nM
- TGI (K-562 leukemia): 10700 nM
- GI50 (KM12 colon): < 10 nM
- TGI (KM12 colon): 72.2 nM
- GI50 (LOX IMVI melanoma): < 10 nM
- TGI (LOX IMVI melanoma): 20.5 nM
- GI50 (M14 melanoma): < 10 nM
- TGI (M14 melanoma): 38.2 nM
- GI50 (MALME-3M melanoma): < 10 nM
- TGI (MALME-3M melanoma): 61.1 nM
- GI50 (MDA-MB-231 breast): 14.6 nM
- TGI (MDA-MB-231 breast): 94.8 nM
- GI50 (MDA-MB-435 melanoma): < 10 nM
- TGI (MDA-MB-435 melanoma): 583 nM
- GI50 (MDA-MB-468 breast): < 10 nM
- TGI (MDA-MB-468 breast): 23.1 nM
- GI50 (MOLT-4 leukemia): < 10 nM
- TGI (MOLT-4 leukemia): < 10 nM
- GI50 (NCI-H226 lung): < 10 nM
- TGI (NCI-H226 lung): 57.5 nM
- GI50 (NCI-H23 lung): < 10 nM
- TGI (NCI-H23 lung): 41.2 nM
- GI50 (NCI-H322M lung): 13.9 nM
- TGI (NCI-H322M lung): 55.7 nM
- GI50 (NCI-H460 NSCLC): < 10 nM
- TGI (NCI-H460 NSCLC): 23.3 nM
- GI50 (NCI-H522 lung): < 10 nM
- TGI (NCI-H522 lung): 33.7 nM
- GI50 (NCI/ADR-RES ovarian): 138 nM
- TGI (NCI/ADR-RES ovarian): 3270 nM
- GI50 (OVCAR-3 ovarian): < 10 nM
- TGI (OVCAR-3 ovarian): 28.2 nM
- GI50 (OVCAR-4 ovarian): < 10 nM
- TGI (OVCAR-4 ovarian): 43.4 nM
- GI50 (OVCAR-5 ovarian): 11 nM
- TGI (OVCAR-5 ovarian): 58 nM
- GI50 (OVCAR-8 ovarian): 20.8 nM
- TGI (OVCAR-8 ovarian): 10700 nM
- GI50 (PC-3 prostate): < 10 nM
- TGI (PC-3 prostate): 2260 nM
- GI50 (RPMI-8226 leukemia): < 10 nM
- TGI (RPMI-8226 leukemia): < 10 nM
- GI50 (RXF 393 renal): < 10 nM
- TGI (RXF 393 renal): 21.8 nM
- GI50 (SF-268 CNS): 15.7 nM
- TGI (SF-268 CNS): 175 nM
- GI50 (SF-295 CNS): 25.9 nM
- TGI (SF-295 CNS): 81.9 nM
- GI50 (SF-539 CNS): < 10 nM
- TGI (SF-539 CNS): 20.1 nM
- GI50 (SK-MEL-2 melanoma): < 10 nM
- TGI (SK-MEL-2 melanoma): 41.3 nM
- GI50 (SK-MEL-28 melanoma): 19.6 nM
- TGI (SK-MEL-28 melanoma): 67 nM
- GI50 (SK-MEL-5 melanoma): < 10 nM
- TGI (SK-MEL-5 melanoma): 41.4 nM
- GI50 (SK-OV-3 ovarian): < 10 nM
- TGI (SK-OV-3 ovarian): 1310 nM
- GI50 (SN12C renal): < 10 nM
- TGI (SN12C renal): 54.6 nM
- GI50 (SNB-19 CNS): 12.4 nM
- TGI (SNB-19 CNS): 119 nM
- GI50 (SNB-75 CNS): 16 nM
- TGI (SNB-75 CNS): 360 nM
- GI50 (SR leukemia): 11.7 nM
- TGI (SR leukemia): 32.8 nM
- GI50 (SW-620 colon): < 10 nM
- TGI (SW-620 colon): 10000 nM
- GI50 (T-47D breast): < 10 nM
- TGI (T-47D breast): 53.3 nM
- GI50 (TK-10 renal): 13.7 nM
- TGI (TK-10 renal): 46.4 nM
- GI50 (U251 glioblastoma): 12.6 nM
- TGI (U251 glioblastoma): 209 nM
- GI50 (UACC-257 melanoma): 25.3 nM
- TGI (UACC-257 melanoma): 420 nM
- GI50 (UACC-62 melanoma): 11.9 nM
- TGI (UACC-62 melanoma): 57.5 nM
- GI50 (UO-31 renal): 21.3 nM
- TGI (UO-31 renal): 91.6 nM
